# Laboratory results reported in ChEMBL document CHEMBL1143693, “Cancer chemopreventive effects of cycloartane-type and related triterpenoids in in vitro and in vivo models” (J Nat Prod, 2007).
# Key:
# [1] = system: Raji; assay: Cell viability of Raji cells at 320 nM; type: functional, Homo sapiens
# [2] = system: Human gammaherpesvirus 4; assay: Inhibition of TPA-induced Epstein-Barr virus early antigen activation assessed as EBV-EA induction in Raji cells at 320 nM after 48 hrs relative to TPA; values are per cent of control; settings: human gammaherpesvirus 4, Raji
# [3] = Scavenging activity against NO generation in human Chang liver cells assessed as inhibition of NOR1-activation at 350 nM relative to NOR1; type: functional
# [4] = system: Human gammaherpesvirus 4; assay: Inhibition of TPA-induced Epstein-Barr virus early antigen activation assessed as EBV-EA induction in Raji cells at 32 nM after 48 hrs relative to TPA; values are per cent of control; settings: human gammaherpesvirus 4, Raji
# [5] = system: Human gammaherpesvirus 4; assay: Inhibition of TPA-induced Epstein-Barr virus early antigen activation assessed as EBV-EA induction in Raji cells at 0.32 nM after 48 hrs relative to TPA; values are per cent of control; settings: human gammaherpesvirus 4, Raji
# [6] = system: Human gammaherpesvirus 4; assay: Inhibition of TPA-induced Epstein-Barr virus early antigen activation in Raji cells after 48 hrs; type: functional, organism-based; settings: human gammaherpesvirus 4, Raji
# [7] = system: Human gammaherpesvirus 4; assay: Inhibition of TPA-induced Epstein-Barr virus early antigen activation assessed as EBV-EA induction in Raji cells at 3.2 nM after 48 hrs relative to TPA; values are per cent of control; settings: human gammaherpesvirus 4, Raji
Compound,Activity [1],"level, % of control at 0.32 µM [2]",Activity [3],"level, % of control at 0.032 µM [4]","level, % of control at 0.00032 µM [5]",IC50 [6],"level, % of control at 0.0032 µM [7]"
C[C@H](CCC(O)C(C)(C)O)[C@H]1CC[C@@]2(C)[C@@H]3CC[C@H]4C(C)(C)C(=O)CC[C@@]45C[C@@]35CC[C@]12C (stereo not given in full),70%,0%,2,19.1%,88.4%,7.4 nM,66.8%
CC(C)C(C)CC[C@@H](C)[C@H]1CC[C@@]2(C)[C@@H]3CC[C@H]4[C@H](C)[C@@H](O)CC[C@@]45C[C@@]35CC[C@]12C (stereo not given in full),70%,0%,1.6,31.8%,96.8%,10 nM,73.4%
CC(C)=CCC[C@@H](C)C1=CC[C@@]2(C)[C@@H]3CC[C@H]4C(C)(C)[C@@H](O)CC[C@@]45C[C@@]35CC[C@]12C [CIMICIFUGENOL],70%,0%,1.8,26.8%,93.8%,9 nM,72.6%
CC(C)=CCC[C@@H](C)[C@H]1CC[C@@]2(C)[C@@H]3CC[C@H]4[C@H](C)[C@@H](O)CC[C@@]45C[C@@]35CC[C@]12C,70%,0%,1.8,30.2%,94.6%,9.5 nM,71.4%
CC(C)=CCC[C@@H](C)[C@H]1CC[C@@]2(C)[C@@H]3CC[C@H]4C(C)(C)[C@H](O)CC[C@@]45C[C@@]35CC[C@]12C,70%,0%,1.8,29.7%,93.7%,9.2 nM,70.3%
C=C(CC[C@@H](C)[C@H]1CC[C@@]2(C)[C@@H]3CC[C@H]4C(C)(C)[C@@H](O)CC[C@@]45C[C@@]35CC[C@]12C)C(C)C,70%,0%,1.7,23.2%,91.4%,8.8 nM,68.1%
C=C(CC[C@@H](C)[C@H]1CC[C@@]2(C)[C@@H]3CC[C@H]4C[C@@H](OC(C)=O)CC[C@@]45C[C@@]35CC[C@]12C)C(C)C,70%,0%,1.5,31.4%,96.3%,10 nM,73.1%
C=C(CC[C@@H](C)[C@H]1CC[C@@]2(C)[C@@H]3CC[C@H]4[C@H](C)[C@@H](OC(=O)/C=C/c5ccc(O)c(OC)c5)CC[C@@]45C[C@@]35CC[C@]12C)C(C)C [CYCLOEUCALENOL FERULATE],70%,14.2%,1.5,53.2%,100%,15.5 nM,81.5%
CC(C)CCC[C@@H](C)C1=CC[C@@]2(C)[C@@H]3CC[C@H]4C(C)(C)[C@@H](O)CC[C@@]45C[C@@]35CC[C@]12C,70%,0%,1.6,32.1%,96.5%,10.1 nM,72.6%
COC(C)(C)[C@@H](O)CC[C@@H](C)[C@H]1CC[C@@]2(C)[C@@H]3CC[C@H]4C(C)(C)[C@@H](O)CC[C@@]45C[C@@]35CC[C@]12C,70%,0%,1.8,30.7%,95.9%,9.5 nM,74.5%
CC(=O)O[C@@H]1CC[C@]23C[C@]24CC[C@]2(C)[C@@H]([C@H](C)CCC=C(C)C)CC[C@@]2(C)[C@@H]4CC[C@H]3C1(C)C,70%,0%,1.6,33.2%,96%,10.2 nM,73.1%
CC(C)C(=O)CC[C@@H](C)[C@H]1CC[C@@]2(C)[C@@H]3CC[C@H]4C(C)(C)[C@@H](O)CC[C@@]45C[C@@]35CC[C@]12C,70%,0%,2,19.8%,90.5%,8.1 nM,62.7%
C=C(C)[C@@H](CC)CC[C@@H](C)[C@H]1CC[C@@]2(C)[C@@H]3CC[C@H]4C(C)(C)[C@@H](O)CC[C@@]45C[C@@]35CC[C@]12C [POLYSTHICOL (24S)],70%,0%,2,28.9%,93.1%,8.8 nM,69.1%
CC(C)=CCC[C@@H](C)[C@H]1CC[C@@]2(C)[C@@H]3CC[C@H]4C(C)(C)[C@@H](O)CC[C@@]45C[C@@]35CC[C@]12C [CYCLOARTENOL],70%,0%,1.6,25.8%,93.5%,8.8 nM,69.9%
CC1=C(/C=C/C(C)=C/C=C/C(C)=C/C(=O)O)C(C)(C)CCC1 [TRETINOIN],60%,21.6%,–,49.3%,100%,15.4 nM,76.3%
C=C(CC[C@@H](C)[C@H]1CC[C@@]2(C)[C@@H]3CC[C@H]4CC(=O)CC[C@@]45C[C@@]35CC[C@]12C)C(C)C,70%,0%,1.5,33.2%,95.6%,10.2 nM,73.8%
C=C(CC[C@@H](C)[C@H]1CC[C@@]2(C)[C@@H]3CC[C@H]4C(C)(C)C(=O)CC[C@@]45C[C@@]35CC[C@]12C)C(C)C,70%,3.1%,1.9,26.4%,96.1%,9.2 nM,73.5%
C=C(C)[C@H](O)CC[C@@H](C)[C@H]1CC[C@@]2(C)[C@@H]3CC[C@H]4C(C)(C)[C@@H](O)CC[C@@]45C[C@@]35CC[C@]12C,70%,0%,2,15%,84.4%,6.4 nM,57.8%
C=C(CC[C@@H](C)[C@H]1CC[C@@]2(C)[C@@H]3CC[C@H]4[C@@H](C)C(=O)CC[C@@]45C[C@@]35CC[C@]12C)C(C)C,70%,0%,1.5,32.7%,95.1%,10.2 nM,73.6%
CC(C)CCC[C@@H](C)[C@@H]1CC[C@@]2(C)[C@@H]3CC[C@H]4C(C)(C)[C@@H](O)CC[C@@]45C[C@@]35CC[C@]12C,70%,0%,1.6,30.8%,94.2%,9.4 nM,71.2%
C[C@@H]1[C@@H](O)CC[C@]23C[C@]24CC[C@]2(C)[C@@H]([C@H](C)CC[C@H](O)C(C)(C)O)CC[C@@]2(C)[C@@H]4CC[C@@H]13,70%,0%,1.7,17.1%,88.8%,6.7 nM,61.3%
CC1(C)N([O])C(c2ccc(C(=O)O)cc2)=[N+]([O-])C1(C)C,–,–,8,–,–,–,–
COc1cc(/C=C/C(=O)CC(=O)/C=C/c2ccc(O)c(OC)c2)ccc1O [CURCUMIN],60%,0%,–,22.8%,100%,10.2 nM,81.7%
CC1=C(/C=C/C(C)=C/C=C/C(C)=C/C=C/C=C(C)/C=C/C=C(C)/C=C/C2=C(C)CCCC2(C)C)C(C)(C)CCC1 [BETA CAROTENE],70%,8.6%,–,34.2%,100%,12.7 nM,82.1%
CC1(C)[C@@H](O[C@H]2O[C@H](C(=O)O)[C@@H](O)[C@H](O)[C@H]2O[C@@H]2O[C@H](C(=O)O)[C@@H](O)[C@H](O)[C@H]2O)CC[C@]2(C)[C@H]3C(=O)C=C4[C@@H]5C[C@@](C)(C(=O)O)CC[C@]5(C)CC[C@@]4(C)[C@]3(C)CC[C@@H]12 [GLYCYRRHIZIN],–,–,2.2,–,–,–,–
